Values after ≈ are worked out from the molar mass of the structure shown.
Assays:
[1] = system: Acinetobacter baumanii T6474; experiment: Bacterial growth minimal inhibitory concentration (microdilution, cation-adjusted Mueller-Hinton Broth); format: cell-based; conditions: Acinetobacter baumannii, multiply-resistant strain, in particular quinolone resistant
Experimental: (§1) Bacterial Growth Minimal Inhibitory Concentrations:
(§2) Minimal inhibitory concentrations (MICs; mg/l) were determined in cation-adjusted Mueller-Hinton Broth by a microdilution method following the description given in “Methods for Dilution Antimicrobial Susceptibility Tests for Bacteria that Grow Aerobically”, Approved standard, 7th ed., Clinical and Laboratory Standards Institute (CLSI) Document M7-A7, Wayne, Pa., USA, 2006.
(§3) All Example compounds were tested against several Gram positive and Gram negative bacteria. Staphylococcus aureus A798 and Acinetobacter baumanii T6474 are multiply-resistant strains, in particular quinolone resistant.

[2] = system: Staphylococcus aureus A798; experiment: as above; format: cell-based; conditions: multiply-resistant strain, in particular quinolone resistant, read-out: MIC for S. aureus A798
Experimental: as §1, §2, §3

Row | SMILES | MIC [1] | MIC [2]
1 | O=C1COc2ccc(N3C[C@H](CNC4CCN(c5nc6c(cc5F)c(=O)c(C(=O)O)cn6C5CC5)CC4)OC3=O)nc2N1 [Example 20, 1-cyclopropyl-6-fluoro-4-oxo-7-(4-{[(S)-2-oxo-3-(3-oxo-3,4-dihydro-2H-pyrido[3,2-b][1,4]oxazin-6-yl)-oxazolidin-5-ylmethyl]-amino}-piperidin-1-yl)-1,4-dihydro-[1,8]naphthyridine-3-carboxylic acid] | ≤ 0.016 µg/mL | ≤ 0.016 µg/mL
2 | O=C1COc2ccc(N3C[C@H](CNC[C@@H]4CCN(c5nc6c(cc5F)c(=O)c(C(=O)O)cn6C5CC5)C4)OC3=O)nc2N1 [Example 22, 1-cyclopropyl-6-fluoro-4-oxo-7-[(S)-3-({[(S)-2-oxo-3-(3-oxo-3,4-dihydro-2H-pyrido[3,2-b][1,4]oxazin-6-yl)-oxazolidin-5-ylmethyl]-amino}-methyl)-pyrrolidin-1-yl]-1,4-dihydro-[1,8]naphthyridine-3-carboxylic acid] | 0.031 µg/mL (≈ 0.0522 µM) | 0.125 µg/mL (≈ 0.211 µM)
3 | O=C1COc2ccc(N3C[C@H](CNC4CCN(c5nc6c(cc5F)c(=O)c5c(O)nsc5n6C5CC5)CC4)OC3=O)nc2N1 [Example 23, 9-cyclopropyl-6-fluoro-3-hydroxy-7-(4-{[(S)-2-oxo-3-(3-oxo-3,4-dihydro-2H-pyrido[3,2-b][1,4]oxazin-6-yl)-oxazolidin-5-ylmethyl]-amino}-piperidin-1-yl)-9H-1-thia-2,8,9-triaza-cyclopenta[b]naphthalen-4-one] | ≤ 0.016 µg/mL | ≤ 0.016 µg/mL

Next, values leading:

Row | MIC [1] | MIC [2] | SMILES
4 | 0.063 µg/mL (≈ 0.106 µM) | ≤ 0.016 µg/mL | O=C1COc2ccc(N3C[C@H](CNC4CN(c5nc6c(cc5F)c(=O)c5c(O)nsc5n6C5CC5)C4)OC3=O)nc2N1 [Example 24, 9-cyclopropyl-6-fluoro-3-hydroxy-7-(3-{[(S)-2-oxo-3-(3-oxo-3,4-dihydro-2H-pyrido[3,2-b][1,4]oxazin-6-yl)-oxazolidin-5-ylmethyl]-amino}-azetidin-1-yl)-9H-1-thia-2,8,9-triaza-cyclopenta[b]naphthalen-4-one]
5 | 0.125 µg/mL (≈ 0.205 µM) | ≤ 0.016 µg/mL | O=C1COc2ccc(N3C[C@H](CN4CCN(c5nc6c(cc5F)c(=O)c5c(O)nsc5n6C5CC5)CC4)OC3=O)nc2N1 [Example 25, 9-cyclopropyl-6-fluoro-3-hydroxy-7-{4-[(S)-2-oxo-3-(3-oxo-3,4-dihydro-2H-pyrido[3,2-b][1,4]oxazin-6-yl)-oxazolidin-5-ylmethyl]-piperazin-1-yl}-9H-1-thia-2,8,9-triaza-cyclopenta[b]naphthalen-4-one]
